Assay results from US20120095012A1, “TOLUIDINE SULFONAMIDES AND THEIR USE” (Elara Pharmaceuticals GmbH, priority 2008, published 2012).

Legend:
[1] = tested on: HIF mediated transcription; test: Inhibition of activation of HIF mediated transcription under hypoxic conditions (CellSensor HRE-bla HCT-116 reporter, DFO-induced); type: cell-based; settings: Homo sapiens; HRE-bla HCT-116 reporter cells, deferoxamine-induced hypoxia, 24 h
Description: Inhibition of an activated HIF signaling response under chemically-induced hypoxic conditions due to compound treatment was determined using the CellSensor® […] HCT-116 stably transfected reporter cell line from Invitrogen according to the manufacturer's instructions. HIF is a transcriptional factor composed of the constitutively expressed HIF 1β subunit and one of three HIFα subunits (HIF1α, HIF2α, HIF3α). This assay is responsive towards HIFα activity in general. In one example, HIF-1, when stabilized by hypoxic conditions, upregulates several genes to promote cell survival in low-oxygen conditions. These include glycolysis enzymes, which allow ATP synthesis in an oxygen-independent manner, and vascular endothelial growth factor (VEGF), which promotes angiogenesis. HIF-1 acts by binding to HIF-responsive elements (HREs) in promoters that generally contain the sequence NCGTG.
Cells were maintained as described previously and seeded into 384-well, clear-bottom plates (Corning 3712) at 15000 cells/well in 32 μl assay medium (Opti-MEM [Invitrogen], 0.5% FBS, 100 U/ml penicillin, 100 μg/ml streptomycin, 0.1 mM non-essential amino acids [NEAA], 1 mM sodium pyruvate, 5 mM HEPES [pH 7.3]). Following a 2 h incubation period, compounds (4 μl) were subsequently added to the cells at 10× concentrations in 5% DMSO and incubated under normal conditions for 30 min. To induce hypoxic conditions, 4 μl of a 2 mM deferoxamine (DFO) solution was added to the cells followed by 24 h incubation under standard assay conditions (as described). Control wells included wells containing only medium (no cells) and wells treated with 0.5% DMSO instead of compound.
Prior to the readout, the Substrate Loading Solution was prepared as described in the manufacturer's protocol and 10 μl added to each well. Following a further 2 h incubation period at room temperature and in the dark, fluorescence was measured at two wavelengths (blue channel: ex. 409 nm, em. 460 nm; green channel: ex. 409 nm, em. 530 nm) on a PerkinElmer Envision HTS. For the analysis, the average signal of the cell-free wells at 460 nm and 530 nm was first subtracted from the blue and green channel data, respectively. The blue/green emission ratios were then calculated for each well, dividing the background-corrected blue emission values by the background-corrected green emission values. IC50 values were determined from these ratios using GraphPad Prism (Prism 5, GraphPad software, Inc.).

[2] = molecular target: T1, tubulin (from porcine brain) (Sus scrofa, UniProt P02550+P02554); test: Inhibition of in vitro tubulin polymerization (OD 340 nm, 90 min); type: biochemical; settings: final absorbance at 90 min vs vehicle control, read-out: tubulin inhib. (at 10 μM)
T1 construct: prepared in-house from porcine brain using a standard procedure involving cycles of polymerization/de-polymerization; from tissue; host or cells: porcine brain
Description: To assess the degree of inhibition of in vitro tubulin polymerization, a tubulin solution (prepared in-house from porcine brain using a standard procedure involving cycles of polymerization/de-polymerization, (see Castoldi & Popov (2003) Protein Expr. Purif. 32(1): 83-88), was incubated with varying concentrations of compounds under polymerizing conditions and kinetic experiments performed to determine the amount of polymerization (as measured by changes in OD at 340 nm) taking place over a 90 min period.
Compound solutions were diluted in double-distilled water to yield final 10× solutions containing 5% DMSO. 5 μl solutions were then added to the wells on a 384-well clear-bottom plate (Corning #3711, Corning Inc.) in preparation for the addition of tubulin. The tubulin solution (19.6 mg/ml, in 80 mM K-PIPES [pH 6.8], 1 mM MgCl2, 1 mM EGTA) was re-suspended to a final concentration of 4 mg/ml with ice cold G-PEM buffer (80 mM PIPES [pH 6.8], 2 mM MgCl2, 0.5 mM EGTA, 10% glycerol, 1 mM GTP) and maintained on ice for at least 1 min. 50 μl was then added to the pre-dispensed compound solutions, the plate orbital shaken on a medium setting for 5s, and the first measurement begun immediately.
Experiments were carried out on a Safire^2 ™ monochromator (Tecan) preset to a stable temperature of 37° C.; the degree of polymerization was determined by measuring the absorbance of the solutions at 340 nm every minute over the 90 min cycle. Reported inhibition values were based on the final absorbance at 90 min and calculated with reference to a vehicle control (0.5% DMSO) using the minimum and maximum signals obtained for this sample.

[3] = tested on: MCF-7 human breast adenocarcinoma cells; HRE-bla HCT116 cell line (colorectal carcinoma); test: Cell proliferation assay (ATPlite luminescence); type: cell-based; settings: Homo sapiens, ATPlite readout, cell line not given
Description: MCF-7 human breast adenocarcinoma cells were obtained from ATCC (LGC Promochem). The CellSensor® HRE-bla HCT116 cell line (colorectal carcinoma) was obtained from Invitrogen.
Cells were grown under humidified 95% air, 5% CO2 at 37° C. in Dulbecco's modified Eagle's medium (DMEM: MCF-7) or McCoy's 5A medium (HRE-bla HCT116) supplemented with 10% fetal bovine serum (FBS), 100 U/ml penicillin and 100 μg/ml streptomycin, 2 mM L-glutamine, and blasticidin at 5 μg/ml as a selection marker (for the HRE-bla HCT116 cell line only).
Cell proliferation experiments were carried out in 96-well tissue culture plates with seeding of 2000 cells/well in 100 μl of the relevant medium. Cells were subsequently incubated under the conditions mentioned for 24 h prior to addition of compounds.
To determine the degree of inhibition of cell proliferation, cells were treated with ATPlite solution according to the manufacturer's instructions (PerkinElmer, ATPlite 1-step Luminescence ATP Detection Assay System) and luciferase readout measured on an Envision HTS multilabel plate reader (PerkinElmer) in luminescence mode according to established protocols. Raw data were imported into an ActivityBase database (IDBS, ID Business Solutions) and EC50 values calculated using the IDBS program ActivityBase XE.

T1 sequence (P02550 whole entry): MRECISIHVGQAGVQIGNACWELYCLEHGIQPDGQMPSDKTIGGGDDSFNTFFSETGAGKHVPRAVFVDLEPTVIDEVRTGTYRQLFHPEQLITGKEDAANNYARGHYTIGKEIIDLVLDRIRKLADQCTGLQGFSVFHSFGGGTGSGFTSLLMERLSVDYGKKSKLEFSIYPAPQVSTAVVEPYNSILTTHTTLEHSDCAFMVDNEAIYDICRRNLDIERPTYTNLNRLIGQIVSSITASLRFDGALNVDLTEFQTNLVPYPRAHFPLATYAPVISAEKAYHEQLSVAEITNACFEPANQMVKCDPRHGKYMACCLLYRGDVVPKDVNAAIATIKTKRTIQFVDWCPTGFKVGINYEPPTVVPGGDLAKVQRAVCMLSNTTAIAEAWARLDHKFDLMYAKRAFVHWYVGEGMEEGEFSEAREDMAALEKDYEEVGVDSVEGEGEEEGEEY
T1 sequence (P02554 whole entry): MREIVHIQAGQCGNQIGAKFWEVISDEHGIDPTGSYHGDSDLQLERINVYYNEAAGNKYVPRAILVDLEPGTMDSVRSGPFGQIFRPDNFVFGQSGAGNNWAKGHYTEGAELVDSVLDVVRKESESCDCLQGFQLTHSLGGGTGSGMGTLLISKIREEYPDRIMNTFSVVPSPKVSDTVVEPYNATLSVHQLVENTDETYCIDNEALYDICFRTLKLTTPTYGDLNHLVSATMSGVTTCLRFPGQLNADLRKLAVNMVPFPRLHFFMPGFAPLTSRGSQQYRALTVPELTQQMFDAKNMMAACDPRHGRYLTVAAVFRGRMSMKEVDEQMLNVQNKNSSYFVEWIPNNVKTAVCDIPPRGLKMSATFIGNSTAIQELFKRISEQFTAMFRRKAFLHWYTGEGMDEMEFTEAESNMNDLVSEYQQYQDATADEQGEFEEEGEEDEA

EC50 [1] [nM] | inhibition at 10 µM [2] [%] | EC50 [3] [nM] | SMILES
< 500 | 20 to 50 | < 500 | CCc1ccc(S(=O)(=O)Nc2cc(-c3ccc(C#N)s3)ccc2C)s1 [Example 1, 5-Ethyl-thiophene-2-sulfonic acid [5-(5-cyano-thiophen-2-yl)-2-methyl-phenyl]-amide]
< 500 | < 20 | < 500 | COc1ccc(S(=O)(=O)Nc2cc(-c3ccc(C#N)s3)ccc2C)cn1 [Example 2, 6-Methoxy-pyridine-3-sulfonic acid [5-(5-cyano-thiophen-2-yl)-2-methyl-phenyl]-amide]
